# Measurements: ChEMBL document CHEMBL4138286, “ent-Jungermannenone C Triggers Reactive Oxygen Species-Dependent Cell Differentiation in Leukemia Cells” (J Nat Prod, 2018)
# Activity calls are given as the source filed them. No cut-off for these calls is given here.
# Tests used:
# [1] = biological target: T1, Peroxiredoxin-1 (Homo sapiens) (UniProt Q06830); assay: Binding affinity to wild type recombinant human N-terminal 6His-tagged peroxiredoxin-1 expressed in Escherichia coli BL21 after 1 hr by LC-MS/MS analysis
# T1 sequence (whole entry): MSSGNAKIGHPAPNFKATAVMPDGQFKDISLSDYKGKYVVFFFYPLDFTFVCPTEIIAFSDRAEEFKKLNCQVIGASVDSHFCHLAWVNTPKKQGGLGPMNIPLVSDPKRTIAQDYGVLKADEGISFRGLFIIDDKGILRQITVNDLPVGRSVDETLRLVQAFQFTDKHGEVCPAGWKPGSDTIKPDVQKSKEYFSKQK
# [2] = biological target: T2, Peroxiredoxin-2 (Homo sapiens) (UniProt P32119); assay: Binding affinity to wild type recombinant human N-terminal 6His-tagged peroxiredoxin-2 expressed in Escherichia coli BL21 after 1 hr by LC-MS/MS analysis
# T2 sequence (whole entry): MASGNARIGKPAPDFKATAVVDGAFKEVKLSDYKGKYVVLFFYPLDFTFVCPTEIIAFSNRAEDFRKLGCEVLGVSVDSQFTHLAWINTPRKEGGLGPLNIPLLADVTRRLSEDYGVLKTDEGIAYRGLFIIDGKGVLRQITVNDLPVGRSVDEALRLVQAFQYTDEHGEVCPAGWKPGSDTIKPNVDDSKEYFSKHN
# [3] = system: NB-4; assay: Cytotoxicity against human NB4 cells assessed as reduction in cell viability after 24 hrs by CellTiter-Glo assay; format: functional, cell-based; conditions: NB-4, 24 h
# [4] = Cytotoxicity against human NB4-LR2 cells assessed as reduction in cell viability after 24 hrs by CellTiter-Glo assay; format: functional, cell-based
# [5] = system: HL-60; assay: Cytotoxicity against human HL60 cells assessed as reduction in cell viability after 24 hrs by CellTiter-Glo assay; format: functional, cell-based; conditions: HL-60, 24 h
# [6] = system: Ramos; assay: Cytotoxicity against human Ramos cells assessed as reduction in cell viability after 24 hrs by CellTiter-Glo assay; format: functional, cell-based
# [7] = system: SUD4; assay: Cytotoxicity against human SUDHL4 cells assessed as reduction in cell viability after 24 hrs by CellTiter-Glo assay; format: functional, cell-based; conditions: SU-DHL-4, 24 h
# [8] = system: OCI-Ly10; assay: Cytotoxicity against human OCI-LY10 cells assessed as reduction in cell viability after 24 hrs by CellTiter-Glo assay; format: functional, cell-based; conditions: OCI-Ly10, 24 h
# [9] = system: A549; assay: Cytotoxicity against human A549 cells assessed as reduction in cell viability after 24 hrs by CellTiter-Glo assay; format: functional, cell-based
# [10] = biological target: T1, Peroxiredoxin-1 (Homo sapiens); assay: Binding affinity to wild type recombinant human N-terminal 6His-tagged peroxiredoxin-1 expressed in Escherichia coli BL21 up to 200 uM by immunoblot analysis
# [11] = system: NB-4; assay: Cytotoxicity against human NB4 cells assessed as reduction in cell viability at 3 uM measured up to 72 hrs by trypan blue exclusion assay; format: functional, cell-based
# [12] = system: NB-4; assay: Induction of cell differentiation in human NB4 cells assessed as reduction in nucleus/cytoplasm ratio at 3 uM after 6 days by Wright-Giemsa staining based assay; format: functional
# [13] = system: NB-4; assay: Induction of cell differentiation in human NB4 cells assessed as CD11b positive cells at 3 uM after 6 days by flow cytometry (reference value: 7.25 +/- 1.18%); format: functional
# [14] = system: NB-4; assay: Induction of cell differentiation in human NB4 cells at 3 uM after 6 days by light microscopy based NBT reduction assay; format: functional
# [15] = Induction of cell differentiation in human NB4-LR2 cells assessed as CD11b+ expression at 4 uM after 24 hrs by flow cytometry (reference value: 6.36%); format: functional
# [16] = system: U-937; assay: Induction of cell differentiation in human U937 cells assessed as CD11b+ expression at 4 uM after 24 hrs by flow cytometry (reference value: 13.46%); format: functional
# [17] = system: NB-4; assay: Induction of cell differentiation in human NB4 cells assessed as CD11b+ expression at 3 uM after 3 days by flow cytometry (reference value: 7.5%); format: functional
# [18] = system: NB-4; assay: Potentiation of ATRA-induced cell differentiation in human NB4 cells assessed as CD11b+ expression at 3 uM after 3 days by flow cytometry (reference value: 56.1%); format: functional
# [19] = Induction of cell differentiation in human NB4-LR2 cells assessed as CD11b+ expression at 2 uM after 3 days by flow cytometry (reference value: 13.3%); format: functional
# [20] = Potentiation of ATRA-induced cell differentiation in human NB4-LR2 cells assessed as CD11b+ expression at 2 uM after 3 days by flow cytometry (reference value: 28.8%); format: functional
# [21] = Induction of cell differentiation in human MR2 cells assessed as CD11b+ expression at 2 uM after 3 days by flow cytometry (reference value: 4.3%); format: functional
# [22] = Potentiation of ATRA-induced cell differentiation in human MR2 cells assessed as CD11b+ expression at 2 uM after 3 days by flow cytometry (reference value: 24.5%); format: functional
# [23] = system: NB-4; assay: Induction of ROS accumulation in human NB4 cells at 3 uM by CM-H2DCFDA probe based flow cytometry; format: functional, cell-based
# [24] = system: NB-4; assay: Induction of cell differentiation in human NB4 cells assessed as CD11b+ expression at 3 uM pretreated with NAC for 4 hrs followed by compound addition measured after 6 days by flow cytometry (reference value: 4.58 +/- 1.53%); format: functional
# [25] = system: NB-4; assay: Induction of cell differentiation in human NB4 cells assessed as CD11b+ expression at 3 uM measured after 6 days by flow cytometry (reference value: 4.58 +/- 1.53%); format: functional
# [26] = system: NB-4; assay: Cytotoxicity against human NB4 cells assessed as reduction in cell viability pretreated with NAC for 4 hrs followed by compound addition measured after 24 hrs by trypan blue assay; format: functional, cell-based
# [27] = Cytotoxicity against PBMC (unknown origin) assessed as cell viability at 20 uM after 24 hrs by trypan blue exclusion assay relative to control; format: cell-based; conditions: read-out: Activity
# [28] = system: PBMC; assay: Cytotoxicity against PBMC (unknown origin) assessed as reduction in cell viability at 1 to 20 uM after 24 hrs by trypan blue exclusion assay; format: cell-based
# [29] = system: SU-DHL-2; assay: Cytotoxicity against human SU-DHL-2 cells assessed as reduction in cell viability after 24 hrs by CellTiter-Glo assay; format: functional, cell-based; conditions: SU-DHL-2, 24 h
# [30] = Cytotoxicity against human OCI-Ly8 cells assessed as reduction in cell viability after 24 hrs by CellTiter-Glo assay; format: functional, cell-based; conditions: OCI-Ly8, 24 h
smiles,measurement,setting,value
C=C1C(=O)[C@H]2C3=C(CC[C@H]4C(C)(C)CCC[C@]34C)C[C@@H]1[C@H]2O,Activity,[1],Active
same,Activity,[2],Active
same,IC50,[3],1.8 µM
same,IC50,[4],1600 nM
same,IC50,[5],1800 nM
same,IC50,[6],1.9 µM
same,IC50,[7],1.3 µM
same,IC50,[8],3.7 µM
same,Activity,[9],Active
same,Activity,[10],Active
same,Activity,[11],inactive
same,Activity,[12],Active
same,Activity,[13],40.7%
same,Activity,[14],40%
same,Activity,[15],21.4%
same,Activity,[16],33.13%
same,Activity,[17],16.4%
same,Activity,[18],80.6%
same,Activity,[19],29.4%
same,Activity,[20],49.5%
same,Activity,[21],4.9%
same,Activity,[22],32.6%
same,Activity,[23],Active
same,Activity,[24],13.2%
same,Activity,[25],44.97%
same,Activity,[26],inactive
C=C1C(=O)C2C3=C(CCC4C(C)(C)CCCC34C)CC1C2O (racemic),"viability at 24 h, 20 µM",[27],80%
same,Activity,[28],Non-Toxic
same,IC50,[29],< 5 µM
same,IC50,[30],< 5 µM
C=C1C(=O)[C@@H]2C3=C(CC[C@@H]4C(C)(C)CCC[C@@]34C)C[C@H]1[C@@H]2O,IC50,[3],4.7 µM
same,IC50,[4],3100 nM
same,IC50,[5],3100 nM
same,IC50,[6],5.1 µM
same,IC50,[7],4.8 µM
same,IC50,[8],8.4 µM
same,Activity,[14],17%
